Tests used:
Vibrio alginolyticus = experiment: Cytotoxicity of Vibrio alginolyticus; type: cell-based; conditions: CM2660 at different concentrations
hlyA and tlh = experiment: qRT-PCR of hemolytic protein genes in Vibrio cholerae; conditions: 20 μM, A600=0.5, vs 2% DMSO
HlyU [1] = experiment: Amount of HlyU protein in cells of Vibrio vulnificus; type: cell-based; conditions: various concentrations, added at A600=0.2, harvested at A600=0.5, vs 2% DMSO
Protocol: In order to determine the mechanism by which the HlyU inhibitor CM2660 inhibited the activity of HlyU, Vibrio vulnificus was cultured at 30° C. and treated with various concentrations of CM2660 at A600=0.2. […] Then, the cell solution was centrifuged at A600=0.5, indicating the time when the intracellular amount of HlyU was maximized, and only the cell portion (pellet) was recovered. The recovered cells were chemically lysed to determine the amount of HlyU in each sample (FIG. 9).

HlyU [2] = target: T1, HlyU (Vibrio vulnificus, UniProt A0A3Q0L222); experiment: High-throughput screening with E. coli reporter strain (pKK1306 + pZW1608 lux reporter); type: cell-based
T1 sequence (A0A3Q0L222 1-98): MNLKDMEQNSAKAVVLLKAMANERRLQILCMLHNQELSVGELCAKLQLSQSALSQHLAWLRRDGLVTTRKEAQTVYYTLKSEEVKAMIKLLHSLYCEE
Source text: Meanwhile, to perform E. coli reporter strain construction and high-throughput screening, a pKK1306 plasmid cloned to induce wild-type hlyU genes by arabinose was constructed. The reporter plasmid is pZW1608, in which the promoter of the VVMO6_00539 gene, expression of which is directly repressed by HlyU, is cloned in front of the bioluminescence operon (lux operon). These two plasmids were simultaneously transformed into E. coli DH5 to construct an E. coli reporter strain (FIG. 1). FIG. 1 is a schematic diagram illustrating the strategy used to screen selective inhibitors of HlyU.
For the screening, approximately 8400 low-molecular-weight compounds were obtained from Korea Compound Bank and used in this experiment. […] When the absorbance at 600 nm (A600) of the culture solution, which was cultured at 37° C., reached 0.5, 100 μl of the culture solution was transferred to a 96-well black plate. […] While culturing at 37° C., the growth and bioluminescence of the reporter strain were measured using an Infinite™ M200 microplate reader (Tecan, Mannedorf, Switzerland). The relative luminescence unit (RLU) was calculated through normalization by division of the measured luminescence value by the absorbance. RLU=luminescence/absorbance [Equation 1] […]

[3] = tested on: exsA, vp1668, vopQ, vopS and vopR; experiment: qRT-PCR of exsA and T3SS-1 genes in Vibrio parahaemolyticus; type: cell-based; conditions: 20 μM, DMEM, vs 2% DMSO
Source text: In V. parahaemolyticus, HlyU is known to activate the gene expression of the master transcriptional regulator, exsA of type III secretion system-1 (T3SS-1), which causes cytotoxicity. In order to determine whether or not CM2660 reduces the expression of the exsA gene by inhibiting HlyU of V. parahaemolyticus, virulence gene expression of V. parahaemolyticus was investigated using the same method as in (2) of Experimental Example 1.
In order to induce the T3SS-1 gene expression of Vibrio parahaemolyticus, Vibrio parahaemolyticus was cultured in Dulbecco's Modified Eagle Medium (DMEM) medium.
Meanwhile, since ExsA activates the expression of the T3SS-1 gene of Vibrio parahaemolyticus, T3SS-1 gene expression was detected using the same sample to determine whether or not the expression of exsA leads to a decrease in T3SS-1 gene expression (FIG. 24).

Vibrio vulnificus [4] = experiment: Hemolytic activity of Vibrio vulnificus against erythrocytes; type: cell-based; conditions: culture supernatant at A600=1.0, different concentrations
Protocol: Meanwhile, the effect of CM2660 on the hemolytic activity against erythrocytes of Vibrio vulnificus was investigated. For this purpose, Vibrio vulnificus was cultured at 30° C. and treated with CM2660 at different concentrations at A600=0.2. […] The filtered supernatant was concentrated and mixed with erythrocytes diluted to 10% in PBS and cultured at 37° C. Hemolytic activity against erythrocytes was quantified by measuring absorbance at 540 nm (A540). A sample completely dissolved by treatment with 5% Triton X-100 instead of the supernatant was used as a positive control group and a sample using LBS medium was used as a negative control group.
Hemolytic activity was calculated using the following Equation 2, and is shown as a percentage (%) in FIG. 14.

[5] = tested on: exsA, va11668, vopQ, vopS and vopR; experiment: qRT-PCR of exsA and T3SS genes in Vibrio alginolyticus; type: cell-based; conditions: 20 μM, A600=0.5, vs 2% DMSO
Protocol: Vibrio alginolyticus is also a pathogenic Vibrio bacterium that has T3SS and is cytotoxic, similar to Vibrio parahaemolyticus. In order to determine the toxin inhibition effect of CM2660 in Vibrio alginolyticus, Vibrio alginolyticus was cultured in TSB (tryptic soy broth) medium supplemented with 1% NaCl.

Vibrio vulnificus [6] = experiment: Growth of Vibrio vulnificus; type: cell-based; conditions: 20-500 μM CM2660
Protocol: While culturing at 30° C., the growth of the reporter strain and the degree of bioluminescence thereof were measured in the same manner as in Example 1, and the RLU was calculated. The RLU of the DMSO-treated control group was expressed as 100% HlyU activity. HlyU activity was plotted according to the concentration of the derivative compound, and EC50 (half maximal effective concentration) was calculated using GraphPad Prism 7.0 (GraphPad Software, San Diego, Calif.) (FIG. 6, Table 2).
Therefore, Vibrio vulnificus was treated with various concentrations of CM2660, and the growth of Vibrio vulnificus was observed (FIG. 20).

With `O=C(C#Cc1ccccc1)Nc1scc2c1c(=O)oc1ccccc12` [CM2660, N-(4-oxo-4H-thieno[3,4-c]chromen-3-yl)-3-phenylprop-2-ynamide] the “cytotoxicity of Vibrio alginolyticus” value (Vibrio alginolyticus) was “reduced in a concentration-dependent manner”, the “hlyA mRNA level” value (hlyA and tlh) was “significantly reduced” and the “tlh mRNA level” value (hlyA and tlh) was “significantly reduced”. For the same compound, the “amount of HlyU in the cells” value (HlyU [1]) was “no significant difference”, the “bioluminescence of E. coli reporter strains” value (HlyU [2]; 20 μM compound, 0.0002% arabinose, vs DMSO) was “significantly increased” and the “HlyU inhibitory effect among the seven screened compounds” value (HlyU [2]; Example 1, E. coli and Vibrio reporter strains) was “best effect”. The “exsA mRNA level” value [3] was “significantly decreased”, the “vopQ mRNA level” value [3] was “decreased significantly” and the “vopR mRNA level” value [3] was “decreased significantly”. For the same compound, the “vopS mRNA level” value [3] was “decreased significantly”, the “vp1668 mRNA level” value [3] was “decreased significantly” and the “hemolytic activity against erythrocytes” value (Vibrio vulnificus [4]) was “concentration-dependent decrease”. For the same compound, the “exsA mRNA level” value [5] was “significantly reduced”, the “va11668 mRNA level” value [5] was “significantly reduced” and the “vopQ mRNA level” value [5] was “significantly reduced”. The “vopR mRNA level” value [5] was “significantly reduced”, the “vopS mRNA level” value [5] was “significantly reduced” and the “in-vitro growth of Vibrio vulnificus” value (Vibrio vulnificus [6]) was “no significant effect”.
